Key:
[1] = molecular target: T1, WT PCSK9(+V5) (Homo sapiens, UniProt Q8NBP7); test: PCSK9 secretion assay: PCSK9 in media and cells by ELISA (media/cell ratio); type: cell-based; details: 10 μM; HepG2 cells stably expressing WT PCSK9(+V5), 24 h
T1 construct: expressed in transfected cells
Method: In 12-well plates (Greiner BioOne™), HepG2 cells stably expressing PCSK9(+V5) were seeded at a density of 1×10^6/well in complete media and incubated for 20 hours, at 37° C. Cells were rinsed once with 2 ml/well of D-PBS (+Calcium, +Magnesium) (Wisent) followed by addition of 0.5 ml/well incubation media (+0.07% BSA) containing the inhibitory compounds at various concentrations (11, 33, 100 μM) or DMSO control (0.4% final) and overnight (24 hours) incubation. 24 hours-conditioned media was collected, centrifuged at 130×g for 5 minutes to remove cell debris, and the supernatant removed for PCSK9 quantification by ELISA (100 μl of 1:30 dilution). Cells were washed once with ice-cold D-PBS (+Calcium, +Magnesium) (Wisent), then lysed with 250 ul/well of radioimmunoprecipitation assay buffer (RIPA) (50 mM Tris-HCl, pH 7.8, 150 mM NaCl, 1% Nonident P-40, 0.5% sodium deoxycholate, 0.1% SDS) containing a mixture of protease inhibitors (Roche Applied Science) for 30 min on ice, and pelleted at 11,300×g for 5 minutes. Supernatant was removed for cellular PCSK9 quantification by ELISA (100 μl of 1:20 dilution) and total protein determination by the Bio-Rad™ DC Protein assay (Bio-Rad) (4 μl cell lysate in duplicate) (Dubuc G, Tremblay M, Pare G, Jacques H, Hamelin J, Benjannet S, Boulet L, Genest J, Bernier L, Seidah N G, Davignon J. 2010. A new method for measurement of total plasma PCSK9: clinical applications. J Lipid Res. 51:140-149). The ratio of PCSK9 concentration of media (M) over cells (C) was determined and compounds which decreased M/C by >30% were considered active.
HepG2 cells stably expressing WT PCSK9(+V5) were incubated overnight (24 hours) in the absence (DMSO) or presence of 10 μM, 100 μM or increasing concentrations (11, 33, 100 μM) of a tested compound. 24 hours-conditioned media was collected, centrifuged, and the supernatant removed for PCSK9 quantification by ELISA (100 μl of 1:30 dilution). Cells were lysed with 250 ul/well of radioimmunoprecipitation assay buffer (RIPA) (50 mM Tris-HCl, pH 7.8, 150 mM NaCl, 1% Nonident P-40, 0.5% sodium deoxycholate, 0.1% SDS) containing a mixture of protease inhibitors (Roche Applied Science), and pelleted at 11,300×g for 5 minutes. Supernatant was removed for cellular PCSK9 quantification by ELISA (100 μl of 1:20 dilution) and total protein determination by the Bio-Rad DC Protein assay (Bio-Rad) (Dubuc G, Tremblay M, Pare G, Jacques H, Hamelin J, Benjannet S, Boulet L, Genest J, Bernier L, Seidah N G, Davignon J. 2010. A new method for measurement of total plasma PCSK9: clinical applications. J Lipid Res. 51:140-149). Over 165 compounds were subjected to a first screen at 100 μM by PCSK9 secretion assay.

[2] = test system: HepG2 cells; test: Cell viability assay (cell density during the PCSK9 secretion assay); type: cell-based, human; details: 33 μM
Method: For the cell viability assay, the cell density of HepG2 cells was measured in the presence of 33 μM of compounds or in the presence of DMSO (control) during the PCSK9 secretion assay described in Example 92. Table II below presents compounds with a low toxicity at 33.3 μM or less.

T1 sequence (Q8NBP7 153-692): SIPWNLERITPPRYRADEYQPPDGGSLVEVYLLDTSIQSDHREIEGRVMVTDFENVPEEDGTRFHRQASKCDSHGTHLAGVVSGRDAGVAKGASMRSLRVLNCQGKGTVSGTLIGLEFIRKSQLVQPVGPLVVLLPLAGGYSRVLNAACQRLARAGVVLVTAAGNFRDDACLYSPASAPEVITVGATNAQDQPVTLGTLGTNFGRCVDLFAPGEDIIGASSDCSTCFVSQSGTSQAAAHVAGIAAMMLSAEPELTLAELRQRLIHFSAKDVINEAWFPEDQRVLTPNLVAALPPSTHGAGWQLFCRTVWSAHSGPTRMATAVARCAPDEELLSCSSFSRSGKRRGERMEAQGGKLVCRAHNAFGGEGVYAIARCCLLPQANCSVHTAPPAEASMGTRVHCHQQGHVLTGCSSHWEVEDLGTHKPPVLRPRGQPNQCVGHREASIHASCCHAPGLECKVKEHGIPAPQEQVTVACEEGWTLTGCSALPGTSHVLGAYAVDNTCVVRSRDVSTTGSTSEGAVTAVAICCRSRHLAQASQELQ

Secretion Inhibition (% Activity) [1]	SMILES	Cell viability (% DMSO Cnt) [2]
74%	CC(C)[C@H](NC(=O)c1ccc(-c2ccccc2)cc1)C(=O)N[C@H](Cc1ccccc1)C(=O)N[C@@H](C)C(=O)NC(CCC(N)=O)C(O)C(F)(F)F (stereo partly drawn) [Example 70, N-((2S)-1-(((2R)-1-(((2S)-1-((6-Amino-1,1,1-trifluoro-2-hydroxy-6-oxohexan-3-yl)amino)-1-oxopropan-2-yl)amino)-1-oxo-3-phenylpropan-2-yl)amino)-3-methyl-1-oxobutan-2-yl)-[1,1′-biphenyl]-4-carboxamide]	
100%	CSCC[C@H](NC(=O)c1ccc(-c2ccccc2)cc1)C(=O)N[C@@H](Cc1ccccc1)C(=O)N[C@@H](C)C(=O)NC(CCC(N)=O)C(O)C(F)(F)F (stereo partly drawn) [Example 75, N-((5S,8S,11S)-17-amino-8-benzyl-11-methyl-6,9,12,17-tetraoxo-14-(2,2,2-trifluoro-1-hydroxyethyl)-2-thia-7,10,13-triazaheptadecan-5-yl)-[1,1′-biphenyl]-4-carboxamide]	
82%	CCCCCCCCCC(=O)N[C@H](C(=O)N[C@@H](Cc1ccccc1)C(=O)N[C@@H](Cc1ccccc1)C(=O)NC(CCC(N)=O)C(O)C(F)(F)F)C(C)C (stereo partly drawn) [Example 59, N-((2S)-1-(((2S)-1-(((2S)-1-((6-Amino-1,1,1-trifluoro-2-hydroxy-6-oxohexan-3-yl)amino)-1-oxo-3-phenylpropan-2-yl)amino)-1-oxo-3-phenylpropan-2-yl)amino)-3-methyl-1-oxobutan-2-yl)decanamide]	83 % DMSO Cnt
92%	CC(C)[C@H](NC(=O)c1ccc(-c2ccccc2)cc1)C(=O)N[C@@H](Cc1ccccc1)C(=O)NC1(C(=O)N[C@@H](CCC(N)=O)C(O)C(F)(F)F)CCC1 (single isomer, unassigned) [Example 66]	
83%	CC(C)[C@H](NC(=O)c1ccc(C2(C(F)(F)F)N=N2)cc1)C(=O)N[C@@H](Cc1ccccc1)C(=O)N[C@@H](C)C(=O)NC(CCC(N)=O)C(O)C(F)(F)F (stereo partly drawn) [Example 29, N-((2S)-1-(((2S)-1-(((2S)-1-((6-Amino-1,1,1-trifluoro-2-hydroxy-6-oxohexan-3-yl)amino)-1-oxopropan-2-yl)amino)-1-oxo-3-phenylpropan-2-yl)amino)-3-methyl-1-oxobutan-2-yl)-4-(3-(trifluoromethyl)-3H-diazirin-3-yl)benzamide]	88 % DMSO Cnt
73%	CCCCCCCCCC(=O)N[C@H](C(=O)N[C@@H](Cc1ccccc1)C(=O)N[C@H](C)C(=O)N[C@@H](CCC(N)=O)C(O)C(F)(F)F)C(C)C (single isomer, unassigned) [Example 60]	80 % DMSO Cnt
79%	CC(C)[C@H](NC(=O)c1ccc(-c2ccc(F)cc2)cc1)C(=O)N[C@@H](Cc1ccccc1)C(=O)N[C@@H](C)C(=O)NC(CCC(N)=O)C(O)C(F)(F)F (stereo partly drawn) [Example 52, N-((2S)-1-(((2S)-1-(((2S)-1-((6-Amino-1,1,1-trifluoro-2-hydroxy-6-oxohexan-3-yl)amino)-1-oxopropan-2-yl)amino)-1-oxo-3-phenylpropan-2-yl)amino)-3-methyl-1-oxobutan-2-yl)-4′-fluoro-[1,1′-biphenyl]-4-carboxamide]	
81%	CCCCCCCCCC(=O)N[C@H](C(=O)N[C@@H](Cc1ccccc1)C(=O)N[C@H](C(=O)NC(CCC(N)=O)C(O)C(F)(F)F)C(C)C)C(C)C (stereo partly drawn) [Example 58, N-((2S)-1-(((2S)-1-(((2S)-1-((6-amino-1,1,1-trifluoro-2-hydroxy-6-oxohexan-3-yl)amino)-3-methyl-1-oxobutan-2-yl)amino)-1-oxo-3-phenylpropan-2-yl)amino)-3-methyl-1-oxobutan-2-yl)decanamide]	93 % DMSO Cnt
88%	CC(C)[C@H](NC(=O)c1ccc(-c2ccccc2)cc1)C(=O)N[C@@H](Cc1ccccc1)C(=O)N[C@@H](C)C(=O)NC(CCC(N)=O)C(O)C(F)(F)F (stereo partly drawn) [Example 24, N-((2S)-1-(((2S)-1-(((2S)-1-((6-Amino-1,1,1-trifluoro-2-hydroxy-6-oxohexan-3-yl)amino)-1-oxopropan-2-yl)amino)-1-oxo-3-phenylpropan-2-yl)amino)-3-methyl-1-oxobutan-2-yl)-[1,1′-biphenyl]-4-carboxamide]	

Reference: patent publication US20160031935A1, “SMALL MOLECULE MODULATORS OF PCSK9 AND METHODS OF USE THEREOF” (ADAERATA, LIMITED PARTNERSHIP, priority 2013, published 2016)
